Assays:
CDK2 [1] = biological target: T1, CDK2 (Homo sapiens, UniProt P24941); assay: Inhibition of CDK2: phospho-Rb (S807/811) HTRF measurement in OVCAR3 cells; assay type: cell-based; settings: 24 h compound treatment, HTRF phospho-RB S807/811, read-out: pRb OVCAR3 (μM), CDK2 IC50 in pRB(S807/811) assay
T1 construct: High-Throughput Measurement of Cellular Endogenous CDK2; endogenous in cells; host or cells: OVCAR3
Experimental: Phosphorylation of RB protein at S807/811 were measured using HTRF phospho-RB cellular kits (Cat #64RBS807PEG) from Cisbio.
On Day 1, OVCAR3 (CDK2 dependent cell line) cells were seeded into 96-well tissue-culture treated plates at 20,000 cells/well in 200 μL and incubated overnight at 37° C. in CO2 atmosphere. On Day 2, the cells were treated with test compounds at concentrations from 0.3 to 10,000 nM using HP D300 digital dispenser. Twenty-four hours after compound treatment, cell culture media was removed by flicking the plate and tapping the plate against clean paper towel. Immediately 30 μL 1× lysis buffer was supplemented from the kit and the plate was incubated at room temperature on shaker for 30 min. After homogenization by pipetting up and down, 8 μL cell lysate from 96-well cell culture plate was transferred to 384-well small volume white detection plate. 2 μL premixed detection solution was added and the plate was covered with sealer. […] Detection plates were incubated for 4 h at room temperature and read on ClarioStar (BMG Labtech) in TR-FRET mode ([…]). […] Half maximal inhibition concentration (IC50) values are calculated with a four-parameter logistic fit using GraphPad Prism (version 8; La Jolla, CA). […]

CDK2 [2] = biological target: T1, CDK2; assay: High-throughput HTRF measurement of cellular endogenous CDK2 (degradation) in OVCAR3 cells; assay type: cell-based; settings: HTRF total CDK2, read-out: DC50 OVCAR3_6 h
Experimental: Effects of compounds on cellular CDK2 level can be monitored by a high-throughput HTRF assay.
To determine half maximal degradation concentration (DC50) values of compounds, cellular CDK2 level was measured in 96-well format using HTRF total CDK2 cellular kit (Cat #64CDK2TPEG) from Cisbio.
On Day 1, OVCAR3 cells were seeded into 96-well tissue-culture treated plates at 20,000 cells/well in 200 μL and incubated overnight at 37° C. in C02 atmosphere. On Day 2 cells were treated with compounds at concentration ranging from 0.3 to 10,000 nM using HP D300 digital dispenser. […] Immediately 30 μL 1× lysis buffer was supplemented from the kit and the plate was incubated at room temperature on shaker for 30 min. After homogenization by pipetting up and down, 8 μL cell lysate from 96-well cell culture plate was transferred to 384-well small volume white detection plate. 2 μL premixed detection solution was added and the plate was covered with sealer. […] Detection plates were incubated overnight at room temperature and read on ClarioStar (BMG Labtech) in TR-FRET mode (665 nM and 620 nM). […] Half maximal degradation concentration (DC50) values were calculated with a four-parameter logistic fit using GraphPad Prism (version 8; La Jolla, CA).

IC50 (CDK2 [1]) [µM]	DC50 (CDK2 [2]) [nM]	Compound
0.1 to 1	41.9	Cn1nc(N2CCC(=O)NC2=O)c2ccc(C3CCN(Cc4cccc(S(=O)(=O)N5CC[C@H](Nc6ncc7ccc(=O)n(C)c7n6)[C@H](F)C5)c4)CC3)cc21 (racemic) [compound 1, Rac-1-(6-(1-(3-(((3R,4S)-3-fluoro-4-((8-methyl-7-oxo-7,8-dihydropyrido[2,3-d]pyrimidin-2-yl)amino)piperidin-1-yl)sulfonyl)benzyl)-piperidin-4-yl)-1-methyl-1H-indazol-3-yl)-dihydropyrimidine-2,4(1H,3H)-dione]
1 to 10	1310	Cn1nc(N2CCC(=O)NC2=O)c2ccc(C3CCN(Cc4cccc(S(=O)(=O)N5CC[C@H](Nc6ncc7ccc(=O)n(CC(F)(F)F)c7n6)[C@H](F)C5)c4)CC3)cc21 (racemic) [compound 2, Rac-1-(6-(1-(3-(((3R,4S)-3-fluoro-4-((7-oxo-8-(2,2,2-trifluoroethyl)-7,8-dihydropyrido[2,3-d]pyrimidin-2-yl)amino)piperidin-1-yl)-sulfonyl)benzyl)piperidin-4-yl)-1-methyl-1H-indazol-3-yl)dihydropyrimidine-2,4(1H,3H)-dione]
